From paper PMC5357639 (Frontiers in Chemistry, 2017)
Where a SMILES comes first, the peptide text is derived from it. The star is where a group is joined. Orn(α-tetramethylguanidino) = CN(C)C(=N[C@@H](CCCN)C(=O)*)N(C)C

Experiments:
in vivo [1] = experiment: in vivo; set-up: species or system CD-1 mice; conditions: iv; for level at 5 min: female, CD-1, mouse, 5 mg/kg; for Time within which peptide is cleared: mouse
Text: (§1) A protocol to quantify Api88, Api137, and their major metabolites was established analog to that of oncocin derivatives, reported recently (Schmidt et al., [2016]). Briefly, an Alliance® 2695 HPLC system was coupled online to an ESI-QqLIT-MS (4,000 QTRAP®) equipped with a TurboV™ ion-spray source and operated in positive ion MRM mode using the Analyst® 1.6 software. Separation was achieved on a Jupiter C18-column (internal diameter 1 mm, length 150 mm, particle size 5 μm, pore size 300 Å) at 55 °C using a linear 5-min gradient from 2.7 to 20.7% aqueous acetonitrile containing ammonium formate (26 mmol/L, pH 3.0). Further details about instrumentation, MRM optimization, and MS settings are provided as Supplementary Material (Tables S1–S4, Method M1).
Female CD-1 mice (20–23 g weight, 7 weeks) were injected intravenously (10 mL/kg) in the tail vein with peptides (0.5 g/L) dissolved in sterile saline (0.9%, w/v) corresponding to doses of 5 mg/kg body weight. Animals (n = 4 per time point and peptide) were euthanized 5, 10, 20, 40, and 60 min post-injection by carbon dioxide inhalation and exsanguination. For further details of sample preparation and recovery experiments see Supplementary Material (Methods M2, M3).
(§2) Method M1: M ultiple reaction monitoring (MRM) transitions for apidaecin peptides Peptides (1 µ g/ m L ) were dissolved inaqueous acetonitrile (25% or 60% v/ v) containing either formate buffer (26 mmol/ L, pH 2.6, 3.0, 3.3 or 3.9 ) or formic acid (0.1% v/v ) and infused (flow rate 5 µ L/min, PHD 2600 s yringe pump) into the ES I-Q q L IT -MS (4000 QTRAP®) to optimize buffer composition and MRM. Transitions were selected from the tandem mass spectra (MS/MS) and confirmed on an ESI-QqTOF-MS (QSTAR® pulsar I) providing higher mass resolutions and mass accuracies than the QTRAP ®. The settings for declustering potential (DP), collision potential (CE), and collision cell exit potential (CXP) were optimized by ramping the respective pot entials using the compound optimization tool of the Anal yst® software.
(§3) Method M2: Sample preparation
Frozen organs (5 per group) wer e homogenized in sterile PBS (500 µ L) containing Protease Inhibitor Mix M (1% v/v; SERVA Electrophoresis GmbH, Heidelberg, German y) using an Ultra-Turr ax ® T25 basic (IKA-Werke, Staufen, German y, rotational speed 21,500 min-1) for 1 min. […]
Limits of detection (LOD) and quantification (LOQ) corresponded to the lowest peptide concentrations in water, plasma, or homogenates of brain, liver , and kidney providing a peak height exceeding the noise in the retention time window at least threefol d (LOD) or ten times (LOQ). Recover y r ates o f SPE and matrix effects were determined b y the p eak areas of spiked

in vitro = in vitro ADME, CD-1 mice; conditions: female, CD-1, mouse, cerebrospinal or other body fluid
Method: Peritoneal lavage (1.5–2 mL) were collected from three euthanized female CD-1 mice (14 weeks, 32–33 g) after injecting sterile PBS intraperitoneal (4 mL). Peptides were incubated with aliquots (95 μL) of fresh lavage (75 μg/mL, 37°C, 750 rpm). After 0, 30, and 60 min trichloroacetic acid (25 μL, 15% w/v) was added to the samples to precipitate proteins, incubated on ice (10 min), and centrifuged (5 min, 12.400 × g). Supernatants were neutralized with sodium hydroxide (1 mol/L) and analyzed by RP-HPLC using a Poroshell 120 SB-C18-column (2.1 mm internal diameter, 100 mm length, 2.7 μm particle size, 12 nm pore size, Agilent Technologies Inc., Santa Clara, CA, USA) at 60°C and an aqueous acetonitrile gradient containing trifluoroacetic acid (0.1%, v/v). Absorbance was recorded at a wavelength of 214 nm.

in vivo [2] = experiment: in vivo; set-up: species or system NMRI mice; conditions: mouse, ip; for C0: c0 (initial concentration at time point 0 min)
Text: as §1
Female NMRI mice (8–9 weeks, 25–35 g) were injected intraperitoneally (10 mL/kg) with peptides dissolved in sterile PBS (Gibco® Life Technologies™, Darmstadt, Germany) at concentrations of 0.5 or 2 g/L corresponding to doses of 5 or 20 mg/kg body weight, respectively. After 10, 20, 30, 60, or 90 min animals (n = 7) were euthanized by carbon dioxide inhalation and terminal bleeding via cardiac puncture. Lithium-heparin plasma (n = 7) was prepared and stored at −80°C. Immediately after the final bleed, mice were perfused through the left ventricle with saline (0.9%, 50 mL, ~3 min) to remove blood from all organs controlled by discoloration of the liver. Organs were removed aseptically and directly frozen in liquid nitrogen. Spontaneously released urine was collected and frozen immediately at −80°C.
as §2, §3
Frozen organs (5 per group) wer e homogenized in sterile PBS (500 µ L) containing Protease Inhibitor Mix M (1% v/v; SERVA Electrophoresis GmbH, Heidelberg, German y) using an Ultra-Turr ax ® T25 basic (IKA-Werke, Staufen, German y, rotational speed 21,500 min-1) for 1 min. Homogenates were sonicated on ice (35% amplitude, mode: 5 s on; 5 s off for 1 min; Vibra-cell™ 75041, Thermo Fisher Scientific) to disrupt cells. After centrifugation (15 min, 21,460 x g, 4°C) the supernatants were stored at - 80°C.
Aliquots of plasma (10 µL) or liver (10 µ L), kidney (50 µ L), and brain hom ogenates (100 µ L) were spiked with isotope -labeled Api88, Api137, Api1- 16, and Api1- 17 (2.5 µ g/ m L). The samples were diluted fourfold with aqueous phosphoric acid (3.4% v/v), loaded on an Oasis H LB 9 6 -well solid phase extraction (SPE) plate (5 mg sorbent, Waters ), washed with aqueous methanol (0.3 m L, 5% v/ v), eluted with methanol (0.3 m L), and dried in a vacuum centrifuge (30 °C; SpeedVac, Eppendorf ). The samples were dissolved prior analysis in aqueous acetonitrile (3% v/v) containing formic acid (0.1 % v/v).
Stock solutions (1 g/L) of the peptides and their corresponding isotope-labelled internal standards were prepared and diluted in water. Calibration and validation mixtures (10 µL) of unlabeled (0.025, 0.1, 0.5 or 2.5 µg/m L) and isotope-labeled peptides ( 2.5 µ g/ m L ) w ere mix ed with plasma or organ homogenates (10 to 100 µL) obtained from untreated animals fo r […]
Limits of detection (LOD) and quantification (LOQ) corresponded to the lowest peptide […]

Compound	level at 5 min (in vivo [1]) [ng/mL]	Time within which peptide is cleared (in vivo [1])	AUC(0-inf) (in vivo [2]; female, NMRI, 5 mg/kg) [ng·h/mL]	Cmax (in vivo [2]; female, NMRI, 5 mg/kg) [ng/mL]	MRT (in vivo [2]; female, NMRI, 5 mg/kg) [min]	clearance (in vivo [2]; female, NMRI, 5 mg/kg) [mL/min]	half-life (in vivo [2]; female, NMRI, 5 mg/kg) [min]	C0 (in vivo [2]; female, NMRI, 5 mg/kg) [ng/mL]	AUC(0-inf) (in vivo [2]; female, NMRI, 20 mg/kg) [ng·h/mL]	Cmax (in vivo [2]; female, NMRI, 20 mg/kg) [ng/mL]	MRT (in vivo [2]; female, NMRI, 20 mg/kg) [min]	clearance (in vivo [2]; female, NMRI, 20 mg/kg) [mL/min]	half-life (in vivo [2]; female, NMRI, 20 mg/kg) [min]	Time within which peptide is cleared (in vivo [2])	AUMC0 → ∞ (in vivo [2]; 5 mg/kg) [μg^*min^2*mL^−^1]	Detection in plasma (in vivo [2]; 5 mg/kg)	Volume of distribution (in vivo [2]; 5 mg/kg) [mL]	k (elimination constant) (in vivo [2]; 5 mg/kg) [min^−^1]	AUMC0 → ∞ (in vivo [2]; 20 mg/kg) [μg^*min^2*mL^−^1]	Volume of distribution (in vivo [2]; 20 mg/kg) [mL]	also measured
CC[C@H](C)[C@H](NC(=O)[C@H](Cc1ccc(O)cc1)NC(=O)[C@@H](NC(=O)[C@@H]1CCCN1C(=O)[C@H](CCCNC(=N)N)NC(=O)[C@H](CC(N)=O)NC(=O)[C@H](CC(N)=O)NC(=O)[C@H](CCCN)N=C(N(C)C)N(C)C)C(C)C)C(=O)N1CCC[C@H]1C(=O)N[C@@H](CCCNC(=N)N)C(=O)N1CCC[C@H]1C(=O)N[C@@H](CCCNC(=N)N)C(=O)N1CCC[C@H]1C(=O)N1CCC[C@H]1C(=O)N[C@@H](Cc1c[nH]cn1)C(=O)N1CCC[C@H]1C(=O)N[C@@H](CCCNC(=N)N)C(=O)N[C@@H](CC(C)C)C(N)=O [Api88] ({Orn(α-tetramethylguanidino)}-NNRPVYIPRPRPPHPRL-NH2)	1000	~ 60 min	355	600	30.5	6.4	17.3	1000	1900	4100	23.9	5.4	11.1	~ 90 min	650	undetectable	137	0.040	2730	100	remaining at 1 h, 75 μg/mL (in vitro): > 60%; c0 (initial concentration at time point 0 min) (in vivo [2]; 5 mg/kg): 1 µg/mL; c0 (initial concentration at time point 0 min) (in vivo [2]; 20 mg/kg): 6.2 µg/mL; k (elimination constant) (in vivo [2]; 20 mg/kg): 0.062 min^−^1
CC[C@H](C)[C@H](NC(=O)[C@H](Cc1ccc(O)cc1)NC(=O)[C@@H](NC(=O)[C@@H]1CCCN1C(=O)[C@H](CCCNC(=N)N)NC(=O)[C@H](CC(N)=O)NC(=O)[C@H](CC(N)=O)NC(=O)[C@H](CCCN)N=C(N(C)C)N(C)C)C(C)C)C(=O)N1CCC[C@H]1C(=O)N[C@@H](CCCNC(=N)N)C(=O)N1CCC[C@H]1C(=O)N[C@@H](CCCNC(=N)N)C(=O)N1CCC[C@H]1C(=O)N1CCC[C@H]1C(=O)N[C@@H](Cc1c[nH]cn1)C(=O)N1CCC[C@H]1C(=O)N[C@@H](CCCNC(=N)N)C(=O)N[C@@H](CC(C)C)C(=O)O [Api137] ({Orn(α-tetramethylguanidino)}-NNRPVYIPRPRPPHPRL-OH)	400	~ 60 min	160	200	54.9	15.1	33.8	200	1200	3600	21	8.4	16.9	~ 90 min	1512	still detected	659	0.020	524	77	half-life at 75 μg/mL (in vitro): ~20 min; c0 (initial concentration at time point 0 min) (in vivo [2]; female, NMRI, 5 mg/kg): 0.22 µg/mL; c0 (initial concentration at time point 0 min) (in vivo [2]; 20 mg/kg): 7.8 µg/mL; k (elimination constant) (in vivo [2]; 20 mg/kg): 0.041 min^−^1; t1/2 (elimination half life time) (in vivo [2]; 20 mg/kg): 17 min
